Test results as given in patent publication US11013249B2, “Compositions for controlled release of volatile compounds” (University of Guelph, priority 2016, dated 2021).
In brackets after ≈: the same amount, converted by molar mass.

Tests used:
P. Fluorescens [1] = test: Antimicrobial efficacy of pure CA and PLA-PEO-CA nonwoven; type: cell-based, Pseudomonas fluorescens; conditions: 25° C.
Method: (§1) The antimicrobial activity of PLA-PEO-CA nonwoven was tested on two spoilage microorganisms, P. fluorescens and P. aphanidermatum. One of each freshly inoculated P. fluorescens and P. aphanidermatum petri dishes, with the lid removed, were placed in a one-liter glass jar. A piece of PLA-PEO-CA nonwoven or a certain amount of liquid CA was placed in the middle of the jar without touching the petri dishes and the lid was closed immediately. The jar was incubated at 25° C. The growth of the microorganisms was monitored every 24 h for 4 d.

P. aphanidermatum = test: as above; type: cell-based, Pythium aphanidermatum; conditions: 25° C.
Method: as §1

Yeast = test: Inhibitory effects of AITC, diacetyl and cinnamaldehyde vapour; type: cell-based, yeast isolated from mung bean sprouts
Method: (§2) P. fluorescens was selected as a model spoilage bacteria, while mould and yeast were isolated from spoiled mung bean sprouts with bacteria excluded by cultivating in potato dextrose broth (PDB) (Sigma, Oakville, ON, Canada) at pH 5.6±0.2. Yeast and P. fluorescens stocks were cultivated in PDB and trypticase soy broth (TSB) (Bacto, BD, Sparks, USA), respectively, at 30° C. for 24 h and diluted with sterile saline solution (NaCl, 8.5 g/L water) to a concentration of 10^6 CFU/mL. An aliquot of 50 μL of the prepared yeast or bacteria suspension was spread on potato dextrose agar (PDA) (Difco, BD, Sparks, USA) or trypticase soy agar (TSA) (Bacto, BD, Sparks, USA), respectively, in 5 cm diameter petri dishes (Fisher Scientific, Ottawa, ON, Canada). Mycelium of mould was inoculated as one spot at the center of the PDA dishes. Two freshly inoculated petri dishes of same microorganism, with their lids removed, were placed in a one-liter glass jar. […] The growth of the microorganisms was monitored by the colony formation for 3 days.

Mould = test: as above; type: cell-based, mould isolated from mung bean sprouts; conditions: 25° C.
Method: as §2

P. Fluorescens [2] = test: as above; type: cell-based, Pseudomonas fluorescens P33; conditions: 25° C.
Method: as §2

[3] = 25° C.; cited from earlier work
[4] = Amount 2 mg in one-liter jar, 25° C.
[5] = Amount 5 mg in one-liter jar, 25° C.
[6] = Amount 10 mg in one-liter jar, 25° C.
[7] = Amount 20 mg in one-liter jar, 25° C.

For `O=CC=Cc1ccccc1` [Cinnamaldehyde], which “P. Fluorescens Day 1, visual colony number” value (P. Fluorescens [1]; 2 mg liquid CA in 1 L jar) is on record?
The value was “++ (15-50)”.

What about the “P. Fluorescens Day 2, visual colony number” value (P. Fluorescens [1]; 2 mg liquid CA in 1 L jar) of the same compound?
Its value is “++++ (more than 150)”.

And the “P. Fluorescens Day 3, visual colony number” value (P. Fluorescens [1]; 2 mg liquid CA in 1 L jar)?
The value was “++++ (more than 150)”.

And the “P. Fluorescens Day 4, visual colony number” value (P. Fluorescens [1]; 2 mg liquid CA in 1 L jar)?
The value was “++++ (more than 150)”.

What about the “P. Fluorescens Day 1, visual colony number” value (P. Fluorescens [1]; 5 mg liquid CA in 1 L jar) of the same compound?
The value was “++ (15-50)”.

And the “P. Fluorescens Day 2, visual colony number” value (P. Fluorescens [1]; 5 mg liquid CA in 1 L jar)?
The value was “++++ (more than 150)”.

What about the “P. Fluorescens Day 3, visual colony number” value (P. Fluorescens [1]; 5 mg liquid CA in 1 L jar) of the same compound?
Its value is “++++ (more than 150)”.

And the “P. Fluorescens Day 4, visual colony number” value (P. Fluorescens [1]; 5 mg liquid CA in 1 L jar)?
The value was “++++ (more than 150)”.

What about the “P. Fluorescens Day 1, visual colony number” value (P. Fluorescens [1]; 10 mg liquid CA in 1 L jar) of the same compound?
Its value is “+ (less than 15)”.

And the “P. Fluorescens Day 2, visual colony number” value (P. Fluorescens [1]; 10 mg liquid CA in 1 L jar)?
The value was “+++ (50-150)”.

And the “P. Fluorescens Day 3, visual colony number” value (P. Fluorescens [1]; 10 mg liquid CA in 1 L jar)?
The value was “+++ (50-150)”.

And the “P. Fluorescens Day 4, visual colony number” value (P. Fluorescens [1]; 10 mg liquid CA in 1 L jar)?
Its value is “+++ (50-150)”.

And the “P. Fluorescens Day 2, visual colony number” value (P. Fluorescens [1]; 30 mg liquid CA in 1 L jar)?
The value was “+ (less than 15)”.

What about the “P. Fluorescens Day 3, visual colony number” value (P. Fluorescens [1]; 30 mg liquid CA in 1 L jar) of the same compound?
Its value is “+ (less than 15)”.

And the “P. Fluorescens Day 4, visual colony number” value (P. Fluorescens [1]; 30 mg liquid CA in 1 L jar)?
Its value is “+ (less than 15)”.

What about the “P. aphanidermatum Day 1, colony diameter” value (P. aphanidermatum; 2 mg liquid CA in 1 L jar) of the same compound?
The value was 1.3 mm.

What about the “P. aphanidermatum Day 2, colony diameter” value (P. aphanidermatum; 2 mg liquid CA in 1 L jar) of the same compound?
The value was 2.8 mm.

What about the “P. aphanidermatum Day 3, colony diameter” value (P. aphanidermatum; 2 mg liquid CA in 1 L jar) of the same compound?
Its value is 4 mm.

What about the “P. aphanidermatum Day 4, colony diameter” value (P. aphanidermatum; 2 mg liquid CA in 1 L jar) of the same compound?
Its value is 5 mm.

What about the “P. aphanidermatum Day 1, colony diameter” value (P. aphanidermatum; 5 mg liquid CA in 1 L jar) of the same compound?
The value was 1 mm.

What about the “P. aphanidermatum Day 2, colony diameter” value (P. aphanidermatum; 5 mg liquid CA in 1 L jar) of the same compound?
Its value is 2.1 mm.

And the “P. aphanidermatum Day 3, colony diameter” value (P. aphanidermatum; 5 mg liquid CA in 1 L jar)?
Its value is 2.8 mm.

And the “P. aphanidermatum Day 4, colony diameter” value (P. aphanidermatum; 5 mg liquid CA in 1 L jar)?
Its value is 3.5 mm.

What about the “P. aphanidermatum Day 1, colony diameter” value (P. aphanidermatum; 10 mg liquid CA in 1 L jar) of the same compound?
The value was 0.8 mm.

And the “P. aphanidermatum Day 2, colony diameter” value (P. aphanidermatum; 10 mg liquid CA in 1 L jar)?
The value was 1.6 mm.

What about the “P. aphanidermatum Day 3, colony diameter” value (P. aphanidermatum; 10 mg liquid CA in 1 L jar) of the same compound?
The value was 2.2 mm.

What about the “P. aphanidermatum Day 4, colony diameter” value (P. aphanidermatum; 10 mg liquid CA in 1 L jar) of the same compound?
The value was 2.7 mm.

What about the “P. aphanidermatum Day 1, colony diameter” value (P. aphanidermatum; 30 mg liquid CA in 1 L jar) of the same compound?
The value was 0.7 mm.

And the “P. aphanidermatum Day 2, colony diameter” value (P. aphanidermatum; 30 mg liquid CA in 1 L jar)?
Its value is 1.4 mm.

What about the “P. aphanidermatum Day 3, colony diameter” value (P. aphanidermatum; 30 mg liquid CA in 1 L jar) of the same compound?
Its value is 1.8 mm.

And the “P. aphanidermatum Day 4, colony diameter” value (P. aphanidermatum; 30 mg liquid CA in 1 L jar)?
The value was 2 mm.

And the “Yeast day1, visual colony number” value (Yeast; [4])?
The value was “+ (less than 15)”.

What about the “Yeast day2, visual colony number” value (Yeast; [4]) of the same compound?
Its value is “+ (less than 15)”.

What about the “Yeast day3, visual colony number” value (Yeast; [4]) of the same compound?
Its value is “++ (15-50)”.

And the “Yeast day1, visual colony number” value (Yeast; [5])?
The value was “+ (less than 15)”.

And the “Yeast day2, visual colony number” value (Yeast; [5])?
Its value is “+ (less than 15)”.

And the “Yeast day3, visual colony number” value (Yeast; [5])?
The value was “+ (less than 15)”.

And the “Yeast day1, visual colony number” value (Yeast; [6])?
Its value is “+ (less than 15)”.

What about the “Yeast day2, visual colony number” value (Yeast; [6]) of the same compound?
Its value is “+ (less than 15)”.

And the “Yeast day3, visual colony number” value (Yeast; [6])?
Its value is “+ (less than 15)”.

And the “Yeast day1, visual colony number” value (Yeast; [7])?
Its value is “+ (less than 15)”.

What about the “Yeast day2, visual colony number” value (Yeast; [7]) of the same compound?
Its value is “+ (less than 15)”.

What about the “Yeast day3, visual colony number” value (Yeast; [7]) of the same compound?
The value was “+ (less than 15)”.

And the MIC (Yeast; established on yeast, mould and P. fluorescens from Table 8, read-out: minimum inhibition concentration (MIC))?
The MIC was 30 µg/mL (≈ 227 µM).

And the “effective concentration against yeast” value (Yeast; vapour in one-liter jar, 25° C.)?
Its value is 30 mg/L.

What about the “Mould day1, visual colony number” value (Mould; Amount 2 mg in one-liter jar) of the same compound?
Its value is “++ (15-50)”.

What about the “Mould day2, visual colony number” value (Mould; Amount 2 mg in one-liter jar) of the same compound?
Its value is “++ (15-50)”.

What about the “Mould day3, visual colony number” value (Mould; Amount 2 mg in one-liter jar) of the same compound?
Its value is “++ (15-50)”.

What about the “Mould day1, visual colony number” value (Mould; Amount 5 mg in one-liter jar) of the same compound?
The value was “+ (less than 15)”.

What about the “Mould day2, visual colony number” value (Mould; Amount 5 mg in one-liter jar) of the same compound?
Its value is “+ (less than 15)”.

And the “Mould day3, visual colony number” value (Mould; Amount 5 mg in one-liter jar)?
The value was “+ (less than 15)”.

And the “Mould day1, visual colony number” value (Mould; Amount 10 mg in one-liter jar)?
Its value is “+ (less than 15)”.

And the “Mould day2, visual colony number” value (Mould; Amount 10 mg in one-liter jar)?
The value was “+ (less than 15)”.

And the “Mould day3, visual colony number” value (Mould; Amount 10 mg in one-liter jar)?
The value was “+ (less than 15)”.

What about the “Mould day1, visual colony number” value (Mould; Amount 20 mg in one-liter jar) of the same compound?
The value was “+ (less than 15)”.

What about the “Mould day2, visual colony number” value (Mould; Amount 20 mg in one-liter jar) of the same compound?
The value was “+ (less than 15)”.

And the “Mould day3, visual colony number” value (Mould; Amount 20 mg in one-liter jar)?
The value was “+ (less than 15)”.

What about the “concentration that inhibited the growth of mould for three days” value (Mould; vapour in one-liter jar) of the same compound?
The value was 30 mg/L.

What about the “P. Fluorescens day1, visual colony number” value (shortened to “P. Fluorescens day1”) (P. Fluorescens [2]; Amount 2 mg in one-liter jar) of the same compound?
The value was “+++ (50-150)”.

And the “P. Fluorescens day2, visual colony number” value (from here on “P. Fluorescens day2”) (P. Fluorescens [2]; Amount 2 mg in one-liter jar)?
Its value is “+++ (50-150)”.

And the “P. Fluorescens day1” value (P. Fluorescens [2]; Amount 5 mg in one-liter jar)?
Its value is “++ (15-50)”.

What about the “P. Fluorescens day2” value (P. Fluorescens [2]; Amount 5 mg in one-liter jar) of the same compound?
Its value is “++ (15-50)”.

What about the “P. Fluorescens day1” value (P. Fluorescens [2]; Amount 10 mg in one-liter jar) of the same compound?
The value was “+ (less than 15)”.

And the “P. Fluorescens day2” value (P. Fluorescens [2]; Amount 10 mg in one-liter jar)?
Its value is “+ (less than 15)”.

And the “P. Fluorescens day1” value (P. Fluorescens [2]; Amount 20 mg in one-liter jar)?
The value was “+ (less than 15)”.

And the “P. Fluorescens day2” value (P. Fluorescens [2]; Amount 20 mg in one-liter jar)?
The value was “+ (less than 15)”.

And the “effective concentration against P. fluorescens” value (P. Fluorescens [2]; vapour in one-liter jar)?
Its value is 30 mg/L.

For `O=C(O)C=Cc1ccccc1` [cinnamic acid], which vapor pressure [3] is on record?
The vapor pressure was 0.0047 mm Hg.

For `Cc1ccc(C(C)C)c(O)c1` [thymol, Thymol], which vapor pressure [3] is on record?
The vapor pressure was 0.0054 kPa.
